Measurements as given in US4545993A, “1,2-Benzopyran-6-yl acetic acid compound and pharmaceutical compositions containing said compounds” (priority 1981, dated 1985).

Key:
[1] = system: pseudopain reactions (dd mice); assay: Analgesic effects by a modified Haffner method; format: in vivo; conditions: oral, with 2 mg/Kg morphine hydrochloride s.c.
Procedure: Groups of 10 dd mice were orally administered the examined drugs and 30 minutes later 2 mg/Kg of morphine hydrochloride, the threshhold dose, was subcutaneously injected. At 15, 30, 45 and 60 minute intervals thereafter, the root of the mouse's tail was squeezed with a Kocher's forcepts.

[2] = Acute toxicity, oral, number of deaths up to 72 hours; conditions: mouse, in vivo
Procedure: Groups of 10 male dd mice weighing some 18 g, were orally administered 800 mg/Kg of each of the examined drugs and the number of deaths up to 72 hours later was recorded.

[3] = system: stretching after acetic acid (male dd mice); assay: Analgesic effects by acetic acid writhing test; format: in vivo; conditions: oral, 0.6% acetic acid i.p.
Procedure: Thirty minutes after the examined drug was orally given, 0.1 ml/10 g of 0.6% acetic acid was intraperitoneally administered to groups of 10 male dd mice weighing some 18 g. The number of stretching was calculated during an observation period of 15 to 20 minutes after acetic acid treatment. The average inhibition rate of stretching among 8 animals was regarded as the inhibition rate of the drug, excluding 2 animals showing maximum and minimum numbers of stretching.

[4] = 800 mg/Kg, oral, male dd mice, up to 72 hours

Compound | Analgesic effects (modified Haffner method) ([1]; 50 mg/Kg) | Analgesic effects (modified Haffner method) ([1]; 100 mg/Kg) | mortality at 72 h [2, 4] | Analgesic effects (acetic acid writhing test; average inhibition rate of stretching) ([3]; 50 mg/Kg) | Analgesic effects (acetic acid writhing test; average inhibition rate of stretching) ([3]; 100 mg/Kg) | mortality at 72 h ([2]; po, 800 mg/kg)
Cc1c(N(C)C)c(=O)n(-c2ccccc2)n1C [Aminopyrine, reference compound] | 20% | 55% | 80% | 18% | 57% | –
CC(C(=O)O)c1cc(F)c2c(c1)C=CC(C)(C)O2 (centres unmarked) [Compound 1, 2-(2,2-dimethyl-8-fluoro-1,2-benzopyran-6-yl)propionic acid] | 40% | 70% | 0% | 59% | 76% | –
CC(C(=O)O)c1ccc2c(c1)C=CC(C)(C)O2 (centres unmarked) [Compound 2, 2-(2,2-Dimethyl-1,2-benzopyran-6-yl)propionic acid] | 25% | 50% | 0% | 44% | 76% | –
CC(C(=O)O)c1cc(Cl)c2c(c1)C=CC(C)(C)O2 (centres unmarked) [Compound 3, 2-(2,2-Dimethyl-8-chloro-1,2-benzopyran-6-yl)propionic acid] | 20% | 65% | 0% | – | – | –
CC(C(=O)O)c1cc(Cl)c2c(c1)C=CCO2 (centres unmarked) [Compound 4, 2-(8-Chloro-1,2-benzopyran-6-yl)propionic acid] | 30% | 55% | 30% | 36% | 61% | –
O=C(O)Cc1cc(Cl)c2c(c1)C=CCO2 [Compound 5, (8-Chloro-1,2-benzopyran-6-yl)acetic acid] | 35% | 70% | – | – | – | –
CC(C(=O)O)c1cc(Cl)c2c(c1)CCC(C)(C)O2 (centres unmarked) [Compound 6, 2-(2,2-dimethyl-8-chlorochroman-6-yl)propionic acid] | 30% | 60% | 30% | 27% | 68% | –
CC(C(=O)O)c1cc(Cl)c2c(c1)CCCO2 (centres unmarked) [Compound 7, 2-(8-Chlorochroman-6-yl)propionic acid] | – | – | 0% | – | – | –
CCCCC1C(=O)N(c2ccccc2)N(c2ccccc2)C1=O [Phenylbutazone, reference compound] | – | – | – | – | – | 60%
